PubChem BioAssay AID1996
≈ marks a conversion by molar mass, not a printed value.

Conditions: buffer; pH 7.4; 200.0 µM

solubility kinetic [µg/mL]	SMILES
52.6 (≈ 144 µM)	CC(=O)N1CCN(c2ccccc2NC(=O)c2ccc(C#N)cc2F)CC1
> 45	O=C(COC(=O)c1ccncc1)Nc1ccc2c(c1)OCO2
42.3 (≈ 140 µM)	COc1ccc(OCC(=O)Nc2ccc3c(c2)OCO3)cc1
> 41.9	O=[N+]([O-])c1ccccc1S(=O)(=O)Nc1cccnc1
3.5 (≈ 13.8 µM)	CC(=O)NC(=S)Nc1ccc([N+](=O)[O-])cc1C
11.6 (≈ 33.3 µM)	O=C(NCc1ccccc1Br)c1ccc2c(c1)OCCO2
8.5 (≈ 30.2 µM)	Cc1ccn2c(C=O)c(-c3ccc(F)cc3)c(C=O)c2c1
0.4 (≈ 1.37 µM)	O=C(NCCc1ccccc1)C(=O)c1c[nH]c2ccccc12
0.2 (≈ 0.633 µM)	S=c1nc(NCCc2ccccc2Cl)c2ccccc2[nH]1
49.7 (≈ 141 µM)	O=S(=O)(NCC(O)c1ccccc1)c1cc(Cl)sc1Cl (stereo not given)
0.5 (≈ 2.05 µM)	S=c1nc(C2CCCCC2)[nH]c2ccccc12
2.5 (≈ 7.43 µM)	O=C(OCCN=C1NS(=O)(=O)c2ccccc21)c1cccs1
1.3 (≈ 3.68 µM)	O=C(CSc1ncnc2ccccc12)Nc1ccc2c(c1)OCCO2
> 29.6	CCCn1c(N)c(CC)c(=O)[nH]c1=O
27.9 (≈ 94.1 µM)	c1ccc(CN2CCC3(CC2)Nc2ccccc2S3)cc1
38.4 (≈ 100 µM)	CC(=O)Nc1cccc(NC(=O)C2CC(=O)N(CCc3ccc(F)cc3)C2)c1 (stereo not given)
1.1 (≈ 2.43 µM)	COc1ccc(NC(=O)C2CCC2)cc1S(=O)(=O)Nc1cc(C)ccc1Br
> 39.6	CC(=O)Nc1ccc(Oc2cncc(Cl)c2)nc1
> 47.6	O=C(O)c1ccc(N2C(=O)c3cccc4cccc(c34)C2=O)cc1
41.5 (≈ 149 µM)	O=C(O)c1nccnc1C(=O)Nc1ccc(Cl)cn1

solubility kinetic [µg/mL]	SMILES
7.3 (≈ 21.2 µM)	Cc1cc(NC(=O)CSc2nc3ccccc3n2CC(C)C)no1
> 42.8	COc1ccc(CN2CCS(=O)(=O)CC2)cc1OC
> 49	CC(C(=O)Nc1ccc(C#N)cc1)N1CCN(C(=O)C2CC2)CC1 (stereo not given)
40 (≈ 134 µM)	CCN1CCN(C(=O)c2c(-c3ccccc3)noc2C)CC1
21.4 (≈ 104 µM)	O=C(NC1=NCCS1)c1ccccc1
> 42.1	CN1CCCC(OC(=O)c2ccc(C#N)cc2)C1.Cl (stereo not given)
44.4 (≈ 127 µM)	O=C(CCc1c[nH]c2ccccc12)NCCc1ccc2c(c1)OCCO2
> 51.7	O=c1c2ccccc2nc2n1C(CSc1ccc(F)cc1)CS2 (stereo not given)
6.3 (≈ 20.6 µM)	Cc1ccsc1C(=O)OCc1cc(=O)n2ccsc2n1
> 59	CC(=O)N1CCN(C(=O)c2ccc(C)c(S(=O)(=O)N3CCCCC3)c2)CC1
30.3 (≈ 109 µM)	Clc1ccccc1N1CCN(Cc2ccco2)CC1
> 49.4	O=C(CN1C(=O)c2ccc([N+](=O)[O-])cc2C1=O)NCc1ccco1
> 46.4	NC(=O)CN1C(=O)NC(c2ccccc2)(c2ccccc2)C1=O
9 (≈ 27.5 µM)	CCC(C)(C)NC(=O)COc1ccc(OCc2ccccc2)cc1
44.1 (≈ 129 µM)	CC(=O)N(C)c1ccc(N=Cc2cc3c(cc2[N+](=O)[O-])OCO3)cc1
10.4 (≈ 27.7 µM)	CCC1(c2ccc(F)cc2)NC(=O)N(CC(=O)NC2CCCCCC2)C1=O (stereo not given)
41 (≈ 112 µM)	COc1ccc(OC(C)C(=O)N(C)Cc2nc(-c3ccccc3)no2)cc1 (stereo not given)
33.4	Cc1ccc(Nc2c3c(nc4ccccc24)CCC3)cc1.Cl
> 43.5	Cl.O=C(OCCN1CCOCC1)c1cccc(F)c1
> 42.2	COc1ccc(C(=O)CCC(C)(C)[N+](=O)[O-])cc1OC

solubility kinetic [µg/mL]	SMILES
20.1 (≈ 128 µM)	CO/N=C(\N)c1nonc1N
1.4 (≈ 3.92 µM)	CCOc1ccc(Br)cc1S(=O)(=O)Nc1cccnc1
38.6 (≈ 139 µM)	CNCCCC12CCC(c3ccccc31)c1ccccc12
49.2 (≈ 147 µM)	CCN(CC)S(=O)(=O)c1ccc(NCCc2ccccn2)nc1
> 39.6	O=[N+]([O-])c1ccc(Cl)cc1NCc1cccnc1
> 40.3	CCc1nnc(NC(=O)c2cc(Cl)ccn2)s1
7.3 (≈ 24.4 µM)	COc1ccc(CCC(=O)Nc2ccc3c(c2)OCO3)cc1
> 43.1	Cc1cnc(C(=O)OCC(=O)c2cc(C)n(C)c2C)cn1
11.8 (≈ 44.1 µM)	COc1ccc(S(=O)(=O)n2cccc2)cc1OC
43 (≈ 130 µM)	OCC1(Cc2ccccc2)CCN(Cc2cccc(F)c2F)CC1
> 52.1	COC(=O)c1ccc(OCC(=O)NCCC2=CCCCC2)c(OC)c1
31.1 (≈ 114 µM)	OC(CN1CCCC(C(F)(F)F)C1)c1ccccc1 (stereo not given)
39.2 (≈ 121 µM)	O=C(CN1CCOCC1)Nc1cc(C(F)(F)F)ccc1Cl
> 39.9	COC(=O)CSc1[nH]c2ccccc2c1[N+](=O)[O-]
30.8 (≈ 104 µM)	Cc1ccc(OCCCn2ccnc2)c(Br)c1
4.8 (≈ 15.1 µM)	CCOc1ccc(CC(=O)Nc2cc(=O)n(C)c(=O)n2C)cc1
> 49.2	N#Cc1cccc(NC(=O)CCNC(=O)c2ccccc2Cl)c1
> 32.1	Cc1ccc(C(=O)c2nccn2C)cc1C

SMILES	solubility kinetic [µg/mL]
CCN1CCN(CC(=O)Nc2cc(S(=O)(=O)N3CCCCC3)ccc2Cl)CC1.O=C(O)C(=O)O	> 77.9
CN/C=C(/Cl)P(=O)(OC(C)C)OC(C)C	> 38.4
